The conditions of data set [1]: Liquid; for vapor or sublimation pressure: Ebulliometric method (Recirculating still).
The nature of data set [2]: refractive index (Na D-line) (dimensionless). Conditions: 298.15 K; 101 kPa; Liquid; Standard Abbe refractometry.

Numbers after ± are expanded uncertainties.

As to `CCO` [ethanol], the vapor or sublimation pressure (usually the equilibrium pressure above the liquid or solid) in data set [1] (351.45 K) turned out to be 101.3 ± 0.5 kPa. The refractive index (usually a measure of how strongly the sample bends light) in data set [2] was determined as 1.35924 ± 0.00032.

Consider `OCCCO` [propan-1,3-diol], for which, in data set [1] (298.15 K, 101 kPa, Vibrating tube method), the mass density (in general, the mass of a sample divided by its volume) was determined as 1049.68 ± 0.27 kg/m3. Besides, the refractive index in data set [2] is 1.43851 ± 0.00037.

Consider `O` [water], for which the “vapor or sublimation pressure” value in data set [1] (373.15 K) amounted to 101.3 ± 0.5 kPa. The refractive index in data set [2] turned out to be 1.33237 ± 0.00032.

These data come from the NIST ThermoML archive (doi:10.1016/j.jct.2013.08.020).
